{
  "source": "patent US4937235A",
  "about": "“3- or 4-substituted oxotremorine derivatives” (American Cyanamid Company, priority 1989, dated 1990)",
  "key": {"[1]": {"biological_target": "muscarinic cholinergic receptor", "experiment": "[3H] Quinuclidinyl Benzilate (3H-QNB) Binding Assay", "set-up": "species or system rat", "details": "pH 7.4"}, "[2]": {"biological_target": "muscarinic cholinergic receptor", "experiment": "[3H]-Cis-methyldioxolane (3H-CD) Binding Assay (High Affinity)", "details": "rat cerebral cortex, 1.0 nM 3H-CD, 25° C., 120 minutes, pH 7.4"}, "aged monkey": {"system": "aged monkey", "details": "aged monkeys; cited from earlier work"}, "SDAT patients": {"system": "SDAT patients", "details": "cited from earlier work"}, "[3]": {"details": "rat cerebral cortex, 0.25 nM 3H-QNB, 25° C., 120 minutes"}},
  "note": "Structures can show the parent of a compound that is named as a salt.",
  "data": [
    {"compound": "CC(=O)O[C@H]1CCN(CC#CCN2CCCCC2)C1=O", "note": "[(S)-3-(Acetyloxy)-1-[4-(1-piperidinyl)-2-butynyl]-2-pyrrolidinone]", "values": [
      {"measurement": "IC50", "setting": "[1]", "value": 367, "unit": "µM"},
      {"measurement": "IC50", "setting": "[2]", "value": 1.45, "unit": "µM"}
    ]},
    {"compound": "CC(=O)O[C@H]1CCN(CC#CCN2CCCC2)C1=O", "note": "[(S)-3-(Acetyloxy)-1-[4-(1-pyrrolidinyl)-2-butynyl]-2-pyrrolidinone]", "values": [
      {"measurement": "IC50", "setting": "[1]", "value": 122, "unit": "µM"},
      {"measurement": "IC50", "setting": "[2]", "value": 0.152, "unit": "µM"}
    ]},
    {"compound": "CC(=O)O[C@H]1CCN(CC#CCN(C)C)C1=O", "note": "[(S)-3-(Acetyloxy)-1-[4-(dimethylamino)-2-butynyl]-2-pyrrolidinone]", "values": [
      {"measurement": "IC50", "setting": "[1]", "value": 1360, "unit": "µM"},
      {"measurement": "IC50", "setting": "[2]", "value": 0.521, "unit": "µM"}
    ]},
    {"compound": "O=C1[C@@H](O)CCN1CC#CCN1CCCCC1", "note": "[(S)-3-Hydroxy-1-[4-(1-piperidinyl)-2-butynyl]-2-pyrrolidinone]", "values": [
      {"measurement": "IC50", "setting": "[1]", "value": 22, "unit": "µM"},
      {"measurement": "IC50", "setting": "[2]", "value": 0.476, "unit": "µM"}
    ]},
    {"compound": "O=C1[C@@H](O)CCN1CC#CCN1CCCC1", "note": "[(S)-3-Hydroxy-1-[4-(1-pyrrolidinyl)-2-butynyl]-2-pyrrolidinone]", "values": [
      {"measurement": "IC50", "setting": "[1]", "value": 11, "unit": "µM"},
      {"measurement": "IC50", "setting": "[2]", "value": 0.009, "unit": "µM"}
    ]},
    {"compound": "O=C1[C@@H](S)CCN1CC#CCN1CCCCC1", "note": "[(S)-3-Mercapto-1-[4-(1-piperidinyl)-2-butynyl]-2-pyrrolidinone, monohydrochloride]", "values": [
      {"measurement": "IC50", "setting": "[1]", "value": 2.5, "unit": "µM"},
      {"measurement": "IC50", "setting": "[2]", "value": 0.955, "unit": "µM"}
    ]},
    {"compound": "O=C1[C@@H](S)CCN1CC#CCN1CCCC1", "note": "[(S)-3-Mercapto-1-[4-(1-pyrrolidinyl)-2-butynyl]-2-pyrrolidinone, monohydrochloride]", "values": [
      {"measurement": "IC50", "setting": "[1]", "value": 2, "unit": "µM"},
      {"measurement": "IC50", "setting": "[2]", "value": 0.048, "unit": "µM"}
    ]},
    {"compound": "CO[C@H]1CCN(CC#CCN2CCCCC2)C1=O", "note": "[(S)-3-Methoxy-1-[4-(1-piperidinyl)-2-butynyl]-2-pyrrolidinone]", "values": [
      {"measurement": "IC50", "setting": "[1]", "value": 673, "unit": "µM"},
      {"measurement": "IC50", "setting": "[2]", "value": 33.1, "unit": "µM"}
    ]},
    {"compound": "CO[C@H]1CCN(CC#CCN2CCCC2)C1=O", "note": "[(S)-3-Methoxy-1-[4-(1-pyrrolidinyl)-2-butynyl]-2-pyrrolidinone]", "values": [
      {"measurement": "IC50", "setting": "[1]", "value": 433, "unit": "µM"},
      {"measurement": "IC50", "setting": "[2]", "value": 1.17, "unit": "µM"}
    ]},
    {"compound": "CC(C)(C)[Si](C)(C)O[C@H]1CCN(CC#CCN2CCCCC2)C1=O", "note": "[(S)-3-[[(1,1-Dimethylethyl)dimethylsilyl]oxy]-1-[4-(1-piperidinyl)-2-butynyl]-2-pyrrolidinone]", "values": [
      {"measurement": "IC50", "setting": "[1]", "value": 24, "unit": "µM"},
      {"measurement": "IC50", "setting": "[2]", "value": 0.161, "unit": "µM"}
    ]},
    {"compound": "CNC(=O)O[C@H]1CCN(CC#CCN2CCCCC2)C1=O", "note": "[(S)-3-[[(Methylamino)carbonyl]oxy]-1-[4-(1-piperidinyl)-2-butynyl]-2-pyrrolidinone]", "values": [
      {"measurement": "IC50", "setting": "[1]; [3]", "value": 744, "unit": "µM"},
      {"measurement": "IC50", "setting": "[2]", "value": 87, "unit": "µM"}
    ]},
    {"compound": "CC(=O)O[C@H]1CC(=O)N(CC#CCN2CCCCC2)C1", "note": "[(S)-4-(Acetyloxy)-1-[4-(1-piperidinyl)-2-butynyl]-2-pyrrolidinone]", "values": [
      {"measurement": "IC50", "setting": "[1]", "value": 159, "unit": "µM"},
      {"measurement": "IC50", "setting": "[2]", "value": 9.57, "unit": "µM"}
    ]},
    {"compound": "CC(=O)O[C@H]1CC(=O)N(CC#CCN2CCCC2)C1", "note": "[(S)-4-(Acetyloxy)-1-[4-(1-pyrrolidinyl)-2-butynyl]-2-pyrrolidinone]", "values": [
      {"measurement": "IC50", "setting": "[1]", "value": 112, "unit": "µM"},
      {"measurement": "IC50", "setting": "[2]", "value": 6.11, "unit": "µM"}
    ]},
    {"compound": "CC(=O)O[C@H]1CC(=O)N(CC#CCN(C)C)C1", "note": "[(S)-4-(Acetyloxy)-1-[4-(dimethylamino)-2-butynyl]-2-pyrrolidinone]", "values": [
      {"measurement": "IC50", "setting": "[1]", "value": 1350, "unit": "µM"},
      {"measurement": "IC50", "setting": "[2]", "value": 41.9, "unit": "µM"}
    ]},
    {"compound": "O=C1C[C@H](O)CN1CC#CCN1CCCCC1", "note": "[(S)-4-Hydroxy-1-[4-(1-piperidinyl)-2-butynyl]-2-pyrrolidinone]", "values": [
      {"measurement": "IC50", "setting": "[1]", "value": 200, "unit": "µM"},
      {"measurement": "IC50", "setting": "[2]", "value": 36.1, "unit": "µM"}
    ]},
    {"compound": "O=C1C[C@H](O)CN1CC#CCN1CCCC1", "note": "[(S)-4-Hydroxy-1-[4-(1-pyrrolidinyl)-2-butynyl]-2-pyrrolidinone]", "values": [
      {"measurement": "IC50", "setting": "[1]", "value": 270, "unit": "µM"},
      {"measurement": "IC50", "setting": "[2]", "value": 4.91, "unit": "µM"}
    ]},
    {"compound": "CC(C)(C)[Si](C)(C)O[C@H]1CC(=O)N(CC#CCN2CCCC2)C1", "note": "[(S)-4-[[(1,1-Dimethylethyl)dimethylsilyl]oxy]-1-[4-(1-pyrrolidinyl)-2-butynyl]-2-pyrrolidinone]", "values": [
      {"measurement": "IC50", "setting": "[1]", "value": 23, "unit": "µM"},
      {"measurement": "IC50", "setting": "[2]", "value": 9.57, "unit": "µM"}
    ]},
    {"compound": "CC(=O)S[C@H]1CCN(CC#CCN2CCCC2)C1=O", "note": "[(S)-S-(2-Oxo-1-[4-(1-pyrrolidinyl)-2-butynyl]-3-pyrrolidinyl]ethanethioic acid ester]", "values": [
      {"measurement": "IC50", "setting": "[1]", "value": 4, "unit": "µM"},
      {"measurement": "IC50", "setting": "[2]", "value": 0.07, "unit": "µM"}
    ]},
    {"compound": "CC(=O)S[C@H]1CCN(CC#CCN(C)C)C1=O", "note": "[(S)-S-[1-[4-(Dimethylamino)-2-butynyl]-2-oxo-3-pyrrolidinyl]ethanethioic acid ester]", "values": [
      {"measurement": "IC50", "setting": "[1]", "value": 40, "unit": "µM"},
      {"measurement": "IC50", "setting": "[2]", "value": 1.53, "unit": "µM"}
    ]},
    {"compound": "CC(=O)S[C@H]1CCN(CC#CCN2CCCCC2)C1=O", "note": "[(S)-S-[2-Oxo-1-[4-(1-piperidinyl)-2-butynyl]-3-pyrrolidinyl]ethanethioic acid ester]", "values": [
      {"measurement": "IC50", "setting": "[1]", "value": 14, "unit": "µM"},
      {"measurement": "IC50", "setting": "[2]", "value": 2.43, "unit": "µM"}
    ]},
    {"compound": "C[N+](C)(C)CC#CCN1CCCC1=O", "note": "[N,N,N-Trimethyl-4-(2-oxo-1-pyrrolidinyl)-2-butyn-1-aminium iodide, reference compound]", "values": [
      {"measurement": "IC50", "setting": "[1]", "value": 18, "unit": "µM"},
      {"measurement": "IC50", "setting": "[2]", "value": 0.003, "unit": "µM"}
    ]},
    {"compound": "O=C1[C@H](SS[C@@H]2CCN(CC#CCN3CCCCC3)C2=O)CCN1CC#CCN1CCCCC1", "note": "[[R-(R*,R*)]-3,3'-dithiobis[1-[4-(1-piperidinyl)-2-butynyl]]-2-pyrrolidinone]", "values": [
      {"measurement": "IC50", "setting": "[1]; [3]", "value": 9, "unit": "µM"},
      {"measurement": "IC50", "setting": "[2]", "value": 1.83, "unit": "µM"}
    ]},
    {"compound": "COC(=O)C1=CCCN(C)C1", "note": "[arecoline]", "values": [
      {"measurement": "improvement in performance", "setting": "aged monkey", "value": "significant improvement in performance"},
      {"measurement": "improvement compared to physostigmine", "setting": "SDAT patients", "value": "more-consistent improvement when compared to the anticholinesterase inhibitor physostigmine"}
    ]},
    {"compound": "O=C1CCCN1CC#CCN1CCCC1", "note": "[oxotremorine]", "values": [
      {"measurement": "improvement in performance", "setting": "aged monkey", "value": "significant improvement in performance"}
    ]}
  ]
}
